Results taken from US20230407243A1, “GENETIC PLATFORM TO INVESTIGATE THE FUNCTIONS OF BACTERIAL DRUG EFFLUX PUMPS” (priority 2022, published 2023).

Experiments:
Assay type in all cases: cell-based, Escherichia coli
K-12 (empty pCA24N) = experiment: MIC of strains harboring ASKA plasmids; conditions: 0.1 mM IPTG; for MIC: K-12 empty pCA24N
ΔtolC (empty pCA24N) = experiment: microbe, parasite or virus in culture; conditions: 0.1 mM IPTG; for MIC: ΔtolC empty pCA24N
EKO-35 wcaC (pCA24N) = experiment: MIC of strains harboring ASKA plasmids; conditions: 0.1 mM IPTG; for MIC: EKO-35 wcaC
EKO-35 rspA (pCA24N) = experiment: MIC of strains harboring ASKA plasmids; conditions: 0.1 mM IPTG; for MIC: EKO-35 rspA
[1] = 4 μg/mL chloramphenicol selection

Compound benzalkonium chloride has an MIC (K-12 (empty pCA24N); Chlor + (25 μg/mL chloramphenicol)) of 25 µg/mL, an MIC (K-12 (empty pCA24N); Chlor −) of 25 µg/mL and an MIC (ΔtolC (empty pCA24N); Chlor +) of 0.781 µg/mL. The MIC (ΔtolC (empty pCA24N); Chlor −) was 1.56 µg/mL, the MIC (EKO-35 wcaC (pCA24N); Chlor + (4 μg/mL)) was 0.391 µg/mL and the MIC (EKO-35 wcaC (pCA24N); Chlor −) was 0.781 µg/mL. It also gave an MIC (EKO-35 rspA (pCA24N); Chlor + (4 μg/mL)) of 0.781 µg/mL and an MIC (EKO-35 rspA (pCA24N); Chlor −) of 0.781 µg/mL.
O=C(Nc1ccccc1C(=O)Nc1nnc(C(F)(F)F)s1)c1ccccc1Cl [compound 19] was tested, and the “MIC, K-12 (empty pCA24N), Chlor +” value (K-12 (empty pCA24N); 25 μg/mL chloramphenicol selection) was over 5 μg/mL, the “MIC, K-12 (empty pCA24N), Chlor −” value (K-12 (empty pCA24N); no plasmid selection) was over 5 μg/mL and the “MIC, ΔtolC (empty pCA24N), Chlor −” value (ΔtolC (empty pCA24N); no plasmid selection) was 2.5 μg/mL. For the same compound, the “MIC, ΔtolC (empty pCA24N), Chlor +” value (ΔtolC (empty pCA24N); with chloramphenicol plasmid selection) was 2.5 μg/mL, the “MIC, EKO-35 wcaC (pCA24N), Chlor +” value (EKO-35 wcaC (pCA24N); [1]) was over 5 μg/mL and the “MIC, EKO-35 wcaC (pCA24N), Chlor −” value (EKO-35 wcaC (pCA24N); no plasmid selection) was over 5 μg/mL. For the same compound, the “MIC, EKO-35 rspA (pCA24N), Chlor +” value (EKO-35 rspA (pCA24N); [1]) was over 5 μg/mL and the “MIC, EKO-35 rspA (pCA24N), Chlor −” value (EKO-35 rspA (pCA24N); no plasmid selection) was over 5 μg/mL.
